Legend:
[1] = target: T1, VANILREP1 (Homo sapiens, UniProt Q8NER1, K571I/M315I/M572C); assay: Two-electrode voltage-clamp recordings in Xenopus laevis oocytes injected with VANILREP1 cDNA; format: cell-based
T1 construct: expressed in transfected cells; host or cells: Xenopus laevis oocytes (nuclear injection of cDNA)
Method: (§1) Xenopus laevis oocyte removal and dissociation were performed. Injections of cDNA for […]1 were made into the nuclei of defolliculated oocytes (1.5ng cDNA/oocyte). After injection the oocytes were incubated between 19-22° C. in modified Barth's solution (MBS) plus gentamycin (0.1mg/ml, pH 7.4) and used for electrophysiological recordings within 2-4 days.
(§2) For electrophysiological recordings oocytes were placed in a recording chamber and continuously perfused with a solution containing in mM: NaCl 88, KCI 1, NaHCO3 2.4, HEPES 15, MgCI2 1, BaCI2 0.1. (14 ml min^−1). Solution was applied using large bore tubing (internal diameter 1.5mm) which facilitated rapid solution exchange half-time 350 -1000 ms). Oocytes were held under voltage clamp at −60mV using the two-electrode voltage-clamp technique. Electrodes were low resistance (0.5-3 MΩ) and were filled with 3 M KCI.
(§3) Currents were evoked in response to application of capsaicin applied through the perfusion system until the maximum current amplitude was reached.

[2] = target: T2, VANILREP1 (Homo sapiens, UniProt Q8NER1); assay: as above; format: cell-based; conditions: oocytes expressing VANILREP1, held at −60mV; capsaicin over a range of concentrations; FIG. 1
T2 construct: expressed in transfected cells; host or cells: Xenopus laevis oocytes (nuclear injection of cDNA)
T2 sequence (Q8NER1 whole entry M315I/K571I/M572C): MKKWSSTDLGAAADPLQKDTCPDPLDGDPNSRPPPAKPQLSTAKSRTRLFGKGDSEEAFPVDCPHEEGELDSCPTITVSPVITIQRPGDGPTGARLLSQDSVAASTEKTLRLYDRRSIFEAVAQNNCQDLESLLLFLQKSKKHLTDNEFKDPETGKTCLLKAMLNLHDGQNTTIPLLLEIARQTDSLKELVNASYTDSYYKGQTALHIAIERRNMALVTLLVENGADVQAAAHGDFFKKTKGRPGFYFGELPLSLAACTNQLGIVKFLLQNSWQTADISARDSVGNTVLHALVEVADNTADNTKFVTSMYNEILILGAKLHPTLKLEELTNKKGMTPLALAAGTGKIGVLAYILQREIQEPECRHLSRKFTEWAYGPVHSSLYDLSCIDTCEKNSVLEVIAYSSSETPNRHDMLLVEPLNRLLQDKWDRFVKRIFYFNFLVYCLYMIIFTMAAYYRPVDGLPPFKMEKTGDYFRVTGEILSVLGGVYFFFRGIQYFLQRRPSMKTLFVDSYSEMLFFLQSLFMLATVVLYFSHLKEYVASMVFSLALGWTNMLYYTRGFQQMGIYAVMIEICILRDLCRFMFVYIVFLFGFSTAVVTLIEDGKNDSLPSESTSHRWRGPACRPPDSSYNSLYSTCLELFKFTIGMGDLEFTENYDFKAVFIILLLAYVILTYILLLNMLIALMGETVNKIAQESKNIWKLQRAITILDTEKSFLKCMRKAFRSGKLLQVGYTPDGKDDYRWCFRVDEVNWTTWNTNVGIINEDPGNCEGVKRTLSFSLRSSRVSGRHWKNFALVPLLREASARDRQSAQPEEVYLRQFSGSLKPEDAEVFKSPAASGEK
Method: as §1, §2, §3

T1 sequence (Q8NER1 whole entry M315I/K571I/M572C): as above

Oc1cc2c(cc1O)CN(C(=S)NCCc1ccc(Cl)cc1)CCC2 [capsazepine]
inhibition of the capsaicin evoked response ([1]; capsazepine 10uM against capsaicin 1uM, oocytes expressing VANILREP1, FIG. 2): inhibition | reversibility of the inhibition of the capsaicin evoked response ([1]; capsazepine 10uM, capsaicin 1uM, extended washing): reversible with extended washing

COc1cc(CNC(=O)CCCC/C=C/C(C)C)ccc1O [capsaicin]
currents evoked in response to application of capsaicin [2]: currents evoked

From patent US20010047090A1, “VANILREP1 polynucleotides and VANILREP1 polypeptides” (priority 1998, published 2001)
